Biological target: T1, topoisomerase IIα (Homo sapiens, UniProt P11388)
T1 construct: gene TOP2A
Assay: cell-free DNA cleavage assay with pHOT1 plasmid ([…], induction of linear DNA)
Type: biochemical

T1 sequence (P11388 whole entry): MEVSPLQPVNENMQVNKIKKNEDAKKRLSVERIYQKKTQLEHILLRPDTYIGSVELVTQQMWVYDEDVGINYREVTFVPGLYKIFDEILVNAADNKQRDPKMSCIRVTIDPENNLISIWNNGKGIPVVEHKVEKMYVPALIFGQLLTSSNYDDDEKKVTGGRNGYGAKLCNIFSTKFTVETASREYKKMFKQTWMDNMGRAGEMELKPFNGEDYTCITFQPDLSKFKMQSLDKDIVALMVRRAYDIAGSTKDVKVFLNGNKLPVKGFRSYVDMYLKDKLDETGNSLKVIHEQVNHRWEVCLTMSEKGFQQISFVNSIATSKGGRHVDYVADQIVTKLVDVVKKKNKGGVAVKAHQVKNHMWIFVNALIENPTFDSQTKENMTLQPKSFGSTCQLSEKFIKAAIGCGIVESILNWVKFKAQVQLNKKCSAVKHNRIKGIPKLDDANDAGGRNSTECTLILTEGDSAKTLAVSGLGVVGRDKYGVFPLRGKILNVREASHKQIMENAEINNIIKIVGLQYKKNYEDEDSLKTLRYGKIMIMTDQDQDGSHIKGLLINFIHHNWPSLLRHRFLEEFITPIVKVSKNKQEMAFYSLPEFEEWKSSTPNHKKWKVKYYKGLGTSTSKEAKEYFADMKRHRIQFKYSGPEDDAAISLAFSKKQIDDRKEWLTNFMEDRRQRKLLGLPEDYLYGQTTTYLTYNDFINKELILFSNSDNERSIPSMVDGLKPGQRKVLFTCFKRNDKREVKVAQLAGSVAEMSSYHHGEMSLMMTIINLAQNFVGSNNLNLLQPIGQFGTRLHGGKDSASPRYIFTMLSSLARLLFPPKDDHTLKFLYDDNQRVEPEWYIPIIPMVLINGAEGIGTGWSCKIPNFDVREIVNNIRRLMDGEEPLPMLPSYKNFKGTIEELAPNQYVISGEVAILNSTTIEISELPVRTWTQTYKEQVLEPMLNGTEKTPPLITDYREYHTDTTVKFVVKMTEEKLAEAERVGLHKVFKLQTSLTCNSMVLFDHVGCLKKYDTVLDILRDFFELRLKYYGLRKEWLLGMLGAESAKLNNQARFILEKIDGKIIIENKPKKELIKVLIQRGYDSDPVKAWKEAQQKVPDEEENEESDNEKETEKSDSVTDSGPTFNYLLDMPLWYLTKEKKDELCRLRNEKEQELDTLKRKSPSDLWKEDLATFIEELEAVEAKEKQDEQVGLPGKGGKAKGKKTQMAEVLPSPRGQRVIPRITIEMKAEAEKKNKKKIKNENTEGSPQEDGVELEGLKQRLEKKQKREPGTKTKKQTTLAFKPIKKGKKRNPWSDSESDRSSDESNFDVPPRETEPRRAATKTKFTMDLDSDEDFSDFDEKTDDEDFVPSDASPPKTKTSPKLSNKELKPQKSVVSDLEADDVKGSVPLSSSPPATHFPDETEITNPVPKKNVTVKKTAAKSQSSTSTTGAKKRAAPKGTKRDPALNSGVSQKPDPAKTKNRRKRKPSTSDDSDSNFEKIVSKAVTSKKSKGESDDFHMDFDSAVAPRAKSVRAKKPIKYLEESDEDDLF

## COc1cc([C@@H]2c3cc4c(cc3[C@@H](O[C@@H]3O[C@@H]5CO[C@@H](C)O[C@H]5[C@H](O)[C@H]3O)[C@H]3COC(=O)[C@H]23)OCO4)cc(OC)c1O [etoposide]
  cell-free DNA cleavage assay with pHOT1 plasmid (500 μM, induction of linear DNA): A linear DNA strand was observed upon treating the supercoiled pHOT1 plasmid DNA with etoposide, a standard topo II poison

From publication PMC6025191, “Heteronemin, a Marine Sesterterpenoid-Type Metabolite, Induces Apoptosis in Prostate LNcap Cells via Oxidative and ER Stress Combined with the Inhibition of Topoisomerase II and Hsp90” (Marine Drugs, 2018)
